Results published in patent US9526785B2, “Pharmaceuticals for oral delivery” (Enteris BioPharma, Inc., priority 2013, dated 2016).
“And” between values parts separate entries of the source, which are not always exact repeats. Equal values may be shown once.

Test: Tigecycline plasma PK after IV bolus in dogs
Type: in vivo, Beagle dogs
Settings: for concentration at 10 min / concentration at 15 min / concentration at 20 min: Beagle
Method: Adult beagle dogs weighing approximately 9 to 15 kg were used in the study. […] Room temperature was set to be maintained between approximately 20±5° C. Relative humidity was monitored but not controlled.
TEKLAD™ Certified Canine Diet was provided once daily in amounts (˜400 grams) appropriate for the size and age of the animals. Tap water was available ad libitum via automatic watering device or water bowls.
Doses are expressed in terms of free net tigecycline content. […] Oral dosing of enteric-coated capsules was accomplished by administering them to the back of the dog's mouth, followed by a chase of 5 mL water to ensure swallowing.
Water was provided ad libitum. […] Subsequently, each group of animals was dosed based on the protocol, i.e. either IV, or PO by capsule.
Minocycline (VWR international) was used as an internal standard. Sample processing/clean-up of plasma samples was carried out offline by protein precipitation with acidified acetonitrile using 0.5% trifluoroacetic acid (TFA).
The HPLC system consisted of Shimadzu SIL-HTc HPLC system equipped with dual Shimadzu LC-10ADvp isopumps, a Shimadzu CTO-10ASvp column temperature controller and a Shimadzu SPD-10Avp variable wavelength detector. […] Mobile phase A consisted of 23 mM phosphate buffer pH 2.5 with 4 mM 1-octanesulfonic acid, while mobile phase B consisting of 90% acetonitrile, 10% water, with 2 mM 1-octanesulfonic acid. […] The total runtime was 18 minutes per sample. The mobile phase flow rate was 1.2 mL/min. Detection was performed using the SPD-10Avp variable wavelength detector set at 350 nm, with a sensitivity of 0.001 aufs.
The samples were then centrifuged under refrigeration at 13 k rpm for 5 minutes. The supernatant was taken and the liquid removed to dryness under nitrogen in a turbovap. The dried extract was reconstituted in 60 μL of mobile phase A and the suspension was further centrifuged at 5 k rpm for 5 minutes to pellet any insoluble matter. The resulting supernatant was then injected onto the LC.
The unknown concentration in dog plasma samples was determined by interpolation of the peak area ratios of analyte:internal standard versus the ratio of their nominal concentrations into the regression line obtained from calibration standards spiked in pooled dog plasma. No regression weighting was used for the calculations. […] The calibration curve covered the range of 0.05 μg/mL to 5 μg/mL.
It should be noted however, that when the method was transferred to an older HPLC system (equipped with a Shimadzu SCT-10Avp system controller and SIL-10A autoinjector), the time program was further altered such that the gradient went to 38% mobile phase B to account to system design changes. All other parameters remained unchanged.
Tigecycline PK parameters for individual dogs were calculated using non-compartmental analysis with PK Functions for Microsoft Excel.

[1] = 1 mg IV in PBS (0.08 mg/kg), SC427, individual dogs

Q: For CN(C)c1cc(NC(=O)CNC(C)(C)C)c(O)c2c1C[C@H]1C[C@H]3[C@H](N(C)C)C(O)=C(C(N)=O)C(=O)[C@@]3(O)C(O)=C1C2=O [Tigecycline], which “AUC(0-t)” value [1] is on record?
A: 0.0614 µg·h/mL and 0.09954 µg·h/mL

Q: What about the Cmax [1] of the same compound?
A: 0.06627 µg/mL and 0.08518 µg/mL

Q: What about the Tmax [1] of the same compound?
A: 5 min

Q: What about the Tmax (1 mg IV in PBS (0.08 mg/kg), SC427, mean) of the same compound?
A: 5 min

Q: And the Tmax (5 mg IV in PBS ([…]), SC431, individual dogs)?
A: 5 min

Q: What about the Tmax (5 mg IV in PBS ([…]), SC431, mean) of the same compound?
A: 5 min

Q: What about the “Tigecycline Plasma Concentration” value (5 min, 1 mg IV in PBS (0.08 mg/kg), SC427, individual dogs) of the same compound?
A: 66.27 ng/mL and 85.18 ng/mL

Q: What about the “Tigecycline Plasma Concentration” value (10 min, 1 mg IV in PBS (0.08 mg/kg), SC427, individual dogs) of the same compound?
A: 23.92 ng/mL and 33.00 ng/mL

Q: And the “Tigecycline Plasma Concentration” value (15 min, 1 mg IV in PBS (0.08 mg/kg), SC427, individual dogs)?
A: 19.85 ng/mL and 20.60 ng/mL

Q: And the “Tigecycline Plasma Concentration” value (20 min, 1 mg IV in PBS (0.08 mg/kg), SC427, individual dogs)?
A: 21.11 ng/mL and 29.60 ng/mL

Q: And the “Tigecycline Plasma Concentration” value (30 min, 1 mg IV in PBS (0.08 mg/kg), SC427, individual dogs)?
A: 17.14 ng/mL and 13.86 ng/mL

Q: And the “Tigecycline Plasma Concentration” value (40 min, 1 mg IV in PBS (0.08 mg/kg), SC427, individual dogs)?
A: 11.51 ng/mL and 21.58 ng/mL

Q: What about the “Tigecycline Plasma Concentration” value (60 min, 1 mg IV in PBS (0.08 mg/kg), SC427, individual dogs) of the same compound?
A: 12.49 ng/mL and 14.50 ng/mL

Q: What about the “Tigecycline Plasma Concentration” value (90 min, 1 mg IV in PBS (0.08 mg/kg), SC427, individual dogs) of the same compound?
A: 8.90 ng/mL and 13.98 ng/mL

Q: And the “Tigecycline Plasma Concentration” value (120 min, 1 mg IV in PBS (0.08 mg/kg), SC427, individual dogs)?
A: 8.80 ng/mL and 12.96 ng/mL

Q: And the “Tigecycline Plasma Concentration” value (360 min, 1 mg IV in PBS (0.08 mg/kg), SC427, individual dogs)?
A: 0.00 ng/mL (2×) and 3.45 ng/mL

Q: And the “Cmax, Mean” value (IV bolus 1 mg (0.08 mg/kg), SC427)?
A: 0.079 µg/mL

Q: And the Tmax (IV, Study 1 (SC427), 1 mg (0.08 mg/kg), mean (% CV))?
A: 5 (0) min

Q: And the concentration at 10 min (female, dog, plasma, intravenous, 1 mg, Tigecycline Plasma Concentration, 10 min, 1 mg IV in PBS (0.08 mg/kg), SC427, individual dogs)?
A: 0.0388 µg/mL

Q: What about the concentration at 10 min (female, dog, plasma, intravenous, 1 mg, Tigecycline Plasma Concentration, 10 min, 1 mg IV in PBS (0.08 mg/kg), SC427, mean) of the same compound?
A: 0.0319 µg/mL

Q: And the concentration at 15 min (female, dog, plasma, intravenous, 1 mg, Tigecycline Plasma Concentration, 15 min, 1 mg IV in PBS (0.08 mg/kg), SC427, individual dogs)?
A: 0.0265 µg/mL

Q: And the concentration at 15 min (female, dog, plasma, intravenous, 1 mg, Tigecycline Plasma Concentration, 15 min, 1 mg IV in PBS (0.08 mg/kg), SC427, mean)?
A: 0.0223 µg/mL

Q: And the concentration at 20 min (female, dog, plasma, intravenous, 1 mg, Tigecycline Plasma Concentration, 20 min, 1 mg IV in PBS (0.08 mg/kg), SC427, individual dogs)?
A: 0.0277 µg/mL

Q: What about the concentration at 20 min (female, dog, plasma, intravenous, 1 mg, Tigecycline Plasma Concentration, 20 min, 1 mg IV in PBS (0.08 mg/kg), SC427, mean) of the same compound?
A: 0.0261 µg/mL

Q: And the concentration at 5 min (female, beagle, dog, plasma, intravenous, 1 mg, Tigecycline Plasma Concentration, 5 min, 1 mg IV in PBS (0.08 mg/kg), SC427, individual dogs)?
A: 0.086 µg/mL

Q: And the concentration at 5 min (female, beagle, dog, plasma, intravenous, 1 mg, Tigecycline Plasma Concentration, 5 min, 1 mg IV in PBS (0.08 mg/kg), SC427, mean)?
A: 0.0791 µg/mL

Q: What about the concentration at 30 min (female, beagle, dog, plasma, intravenous, 1 mg, Tigecycline Plasma Concentration, 30 min, 1 mg IV in PBS (0.08 mg/kg), SC427, individual dogs) of the same compound?
A: 0.0176 µg/mL

Q: What about the concentration at 30 min (female, beagle, dog, plasma, intravenous, 1 mg, Tigecycline Plasma Concentration, 30 min, 1 mg IV in PBS (0.08 mg/kg), SC427, mean) of the same compound?
A: 0.0162 µg/mL

Q: And the concentration at 40 min (female, beagle, dog, plasma, intravenous, 1 mg, Tigecycline Plasma Concentration, 40 min, 1 mg IV in PBS (0.08 mg/kg), SC427, individual dogs)?
A: 0.0143 µg/mL

Q: What about the concentration at 40 min (female, beagle, dog, plasma, intravenous, 1 mg, Tigecycline Plasma Concentration, 40 min, 1 mg IV in PBS (0.08 mg/kg), SC427, mean) of the same compound?
A: 0.0158 µg/mL

Q: And the concentration at 60 min (female, beagle, dog, plasma, intravenous, 1 mg, Tigecycline Plasma Concentration, 60 min, 1 mg IV in PBS (0.08 mg/kg), SC427, individual dogs)?
A: 0.0135 µg/mL

Q: And the concentration at 60 min (female, beagle, dog, plasma, intravenous, 1 mg, Tigecycline Plasma Concentration, 60 min, 1 mg IV in PBS (0.08 mg/kg), SC427, mean)?
A: 0.0135 µg/mL

Q: What about the concentration at 90 min (female, beagle, dog, plasma, intravenous, 1 mg, Tigecycline Plasma Concentration, 90 min, 1 mg IV in PBS (0.08 mg/kg), SC427, individual dogs) of the same compound?
A: 0.0112 µg/mL

Q: And the concentration at 90 min (female, beagle, dog, plasma, intravenous, 1 mg, Tigecycline Plasma Concentration, 90 min, 1 mg IV in PBS (0.08 mg/kg), SC427, mean)?
A: 0.0114 µg/mL

Q: What about the concentration at 120 min (female, beagle, dog, plasma, intravenous, 1 mg, Tigecycline Plasma Concentration, 120 min, 1 mg IV in PBS (0.08 mg/kg), SC427, individual dogs) of the same compound?
A: 0.0116 µg/mL
